# Measurements: the supplement of paper PMC10307832
# Compound: CC1(C)CNc2cc(NC(=O)c3cccnc3NCc3ccncc3)ccc21 [Motesanib] + COc1cc2c(Oc3ccc(NC(=O)C4(C(=O)Nc5ccc(F)cc5)CC4)cc3F)ccnc2cc1OCCCN1CCOCC1 [Foretinib] (partner 0.25 µM)
# Assay: relative viability (nuclei count vs DMSO), 5 days (fraction); higher = more cells survive
# Conditions: first compound 0.01 µM
# In short: (§1)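 Lung cancer cell lines, seeded in 1536-well plates, were treated the following day by pin tool with a single drug or with five library-drug doses (not always all listed) in √10 steps on top of a fixed anchor-drug dose. Cells were fixed and nuclei stained in one step after 5 days, and nuclei were counted. Relative viability is the nuclei count for treated wells divided by that for vehicle wells, reported as medians of duplicate plates.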
row,Cell Line,relative viability
1,NCI-H23,0.952
2,NCI-H647,1.21
3,CAL-12T,1.13
4,NCI-H1651,0.824
5,EPLC-272H,0.659
6,NCI-H1355,1.02
7,NCI-H3122,0.951
8,NCI-H1437,1.28
9,NCI-H1755,0.904
10,HCC-15,0.984
11,NCI-H1793,0.815
12,PC-14,0.922
13,EKVX,0.744
14,LC-2-ad,0.875
15,NCI-H1944,0.959
16,NCI-H1975,0.978
17,RERF-LC-KJ,0.876
18,ABC-1,1.1

# Same assay, conditions: first compound 0.03162 µM
row,Cell Line,relative viability
1,LU99A,0.813
2,BEN,0.55
3,HARA,0.801
4,HCC-78,0.637
5,NCI-H322M,0.998
6,LCLC-97TM1,0.968
7,A-427,1.05
8,NCI-H441,0.922
9,NCI-H1734,0.883
10,NCI-H460,0.966
11,NCI-H2347,0.429
12,NCI-H1395,0.809
13,201T,1.1
14,NCI-H1915,1.06
15,HCC-827,1.09
16,LXF-289,0.952
17,NCI-H23,0.718

row,Cell Line,relative viability
1,NCI-H647,1.14
2,CAL-12T,1.19
3,NCI-H1651,0.877
4,EPLC-272H,0.744
5,NCI-H1355,0.96
6,NCI-H3122,0.938
7,NCI-H1437,1.24
8,NCI-H1755,0.914
9,HCC-15,0.838
10,NCI-H1793,0.566
11,PC-14,0.997
12,EKVX,0.902
13,LC-2-ad,0.988
14,NCI-H1944,0.916
15,NCI-H1975,0.9
16,RERF-LC-KJ,0.866
17,ABC-1,1.06

# Same assay, conditions: first compound 0.1 µM
row,Cell Line,relative viability
1,LU99A,0.734
2,BEN,0.739
3,HARA,0.906
4,HCC-78,0.507
5,NCI-H322M,0.979
6,LCLC-97TM1,0.976
7,A-427,1.06
8,NCI-H441,1.13
9,NCI-H460,1
10,NCI-H2347,1.14
11,NCI-H1395,1.05
12,201T,0.997
13,NCI-H1915,1.09
14,HCC-827,1.02
15,LXF-289,0.924
16,NCI-H23,0.892

row,Cell Line,relative viability
1,NCI-H647,1.21
2,CAL-12T,1.2
3,NCI-H1651,0.845
4,NCI-H1355,1.02
5,NCI-H3122,0.821
6,NCI-H1437,1.25
7,NCI-H1755,0.925
8,HCC-15,1.01
9,NCI-H1793,0.721
10,PC-14,1
11,EKVX,0.743
12,LC-2-ad,0.893
13,NCI-H1944,0.861
14,NCI-H1975,0.908
15,RERF-LC-KJ,0.848
16,ABC-1,1.04

# Same assay, conditions: first compound 0.3162 µM
row,Cell Line,relative viability
1,LU99A,0.898
2,BEN,0.572
3,HARA,0.915
4,HCC-78,0.514
5,NCI-H322M,0.946
6,LCLC-97TM1,0.919
7,A-427,1.16
8,NCI-H441,1
9,NCI-H1734,0.879
10,NCI-H460,1.01
11,NCI-H2347,0.614
12,NCI-H1395,1.02
13,201T,1.13
14,NCI-H1915,1.14
15,HCC-827,1.08
16,LXF-289,1.03
17,NCI-H23,1.38

row,Cell Line,relative viability
1,NCI-H647,1.25
2,CAL-12T,1.19
3,NCI-H1651,0.82
4,EPLC-272H,0.663
5,NCI-H1355,1.01
6,NCI-H3122,1.01
7,NCI-H1437,1.3
8,NCI-H1755,1.01
9,HCC-15,1.17
10,NCI-H1793,0.591
11,PC-14,1.01
12,EKVX,0.82
13,LC-2-ad,0.984
14,NCI-H1944,0.967
15,NCI-H1975,0.898
16,RERF-LC-KJ,0.864
17,ABC-1,1.05

# Same assay, conditions: first compound 1 µM
row,Cell Line,relative viability
1,LU99A,0.89
2,BEN,0.992
3,HARA,0.881
4,HCC-78,0.678
5,NCI-H322M,1.06
6,LCLC-97TM1,0.979
7,A-427,1.23
8,NCI-H441,1.03
9,NCI-H1734,0.968
10,NCI-H460,1.04
11,NCI-H2347,1.86
12,NCI-H1395,0.942
13,201T,1.1
14,NCI-H1915,1.06
15,HCC-827,1.03
16,LXF-289,0.987
17,NCI-H23,0.933

row,Cell Line,relative viability
1,NCI-H647,1.14
2,CAL-12T,1.12
3,NCI-H1651,0.982
4,EPLC-272H,0.799
5,NCI-H1355,1.03
6,NCI-H3122,0.986
7,NCI-H1437,1.33
8,NCI-H1755,0.842
9,HCC-15,1.11
10,NCI-H1793,0.805
11,PC-14,1.06
12,EKVX,0.921
13,LC-2-ad,1.02
14,NCI-H1944,0.988
15,NCI-H1975,0.899
16,RERF-LC-KJ,0.892
17,ABC-1,1.2

# Compound: CC1(C)CNc2cc(NC(=O)c3cccnc3NCc3ccncc3)ccc21 [Motesanib] + NC(=O)Nc1cc(-c2cccc(F)c2)sc1C(=O)N[C@H]1CCCNC1 [AZD7762] (partner 0.2 µM)
# Assay: as above
# Conditions: first compound 0.01 µM
# In short: as §1
row,Cell Line,relative viability
1,LU99A,0.39
2,BEN,0.617
3,HARA,0.17
4,HCC-78,0.657
5,NCI-H322M,0.568
6,A-427,0.709
7,NCI-H441,0.97
8,NCI-H1734,0.548
9,NCI-H460,0.56
10,NCI-H2347,0.738
11,NCI-H1395,0.387
12,201T,0.592
13,NCI-H1915,0.676
14,HCC-827,0.216
15,LXF-289,1.07
16,NCI-H23,0.194
17,NCI-H647,0.493

row,Cell Line,relative viability
1,CAL-12T,0.518
2,NCI-H1651,0.401
3,EPLC-272H,0.145
4,NCI-H1355,0.778
5,NCI-H3122,0.972
6,NCI-H1437,1.05
7,NCI-H1755,0.407
8,HCC-15,1.34
9,NCI-H1793,0.41
10,PC-14,0.306
11,EKVX,0.716
12,LC-2-ad,0.858
13,NCI-H1944,0.425
14,NCI-H1975,0.656
15,RERF-LC-KJ,0.9
16,ABC-1,0.811

# Same assay, conditions: first compound 0.03162 µM
row,Cell Line,relative viability
1,LU99A,0.361
2,BEN,0.877
3,HARA,0.277
4,HCC-78,0.547
5,NCI-H322M,0.531
6,LCLC-97TM1,0.328
7,A-427,0.733
8,NCI-H441,1.2
9,NCI-H1734,0.648
10,NCI-H460,0.633
11,NCI-H2347,0.825
12,NCI-H1395,0.372
13,201T,0.617
14,NCI-H1915,0.66
15,HCC-827,0.29
16,LXF-289,1.06
17,NCI-H23,0.227

row,Cell Line,relative viability
1,NCI-H647,0.464
2,CAL-12T,0.637
3,NCI-H1651,0.499
4,EPLC-272H,0.268
5,NCI-H1355,0.54
6,NCI-H3122,1.02
7,NCI-H1437,1.08
8,NCI-H1755,0.45
9,HCC-15,1.18
10,NCI-H1793,0.243
11,PC-14,0.296
12,EKVX,0.653
13,LC-2-ad,0.876
14,NCI-H1944,0.476
15,NCI-H1975,0.686
16,RERF-LC-KJ,0.873
17,ABC-1,1

# Same assay, conditions: first compound 0.1 µM
row,Cell Line,relative viability
1,LU99A,0.382
2,BEN,0.645
3,HARA,0.48
4,HCC-78,0.907
5,NCI-H322M,0.53
6,LCLC-97TM1,0.241
7,A-427,0.821
8,NCI-H441,1.1
9,NCI-H1734,0.584
10,NCI-H460,0.772
11,NCI-H2347,0.749
12,NCI-H1395,0.39
13,201T,0.734
14,NCI-H1915,0.747
15,HCC-827,0.196
16,LXF-289,1.14
17,NCI-H23,0.186

row,Cell Line,relative viability
1,NCI-H647,0.441
2,CAL-12T,0.684
3,NCI-H1651,0.547
4,EPLC-272H,0.151
5,NCI-H1355,0.837
6,NCI-H3122,0.945
7,NCI-H1437,1.15
8,NCI-H1755,0.467
9,HCC-15,1.06
10,NCI-H1793,0.605
11,PC-14,0.286
12,EKVX,0.684
13,LC-2-ad,0.868
14,NCI-H1944,0.532
15,NCI-H1975,0.752
16,RERF-LC-KJ,1.06
17,ABC-1,0.762

# Same assay, conditions: first compound 0.3162 µM
row,Cell Line,relative viability
1,LU99A,0.399
2,BEN,0.576
3,HARA,0.362
4,NCI-H322M,0.488
5,LCLC-97TM1,0.238
6,A-427,0.775
7,NCI-H441,1.01
8,NCI-H1734,0.499
9,NCI-H460,0.653
10,NCI-H2347,0.674
11,NCI-H1395,0.405
12,201T,0.637
13,NCI-H1915,0.711
14,HCC-827,0.213
15,LXF-289,1.22
16,NCI-H23,0.195
17,NCI-H647,0.621

row,Cell Line,relative viability
1,CAL-12T,0.69
2,NCI-H1651,0.451
3,EPLC-272H,0.21
4,NCI-H1355,0.687
5,NCI-H3122,1.06
6,NCI-H1437,1.11
7,NCI-H1755,0.425
8,HCC-15,1.36
9,NCI-H1793,0.514
10,PC-14,0.41
11,EKVX,0.68
12,LC-2-ad,0.837
13,NCI-H1944,0.541
14,NCI-H1975,0.821
15,RERF-LC-KJ,1.03
16,ABC-1,0.904

# Same assay, conditions: first compound 1 µM
row,Cell Line,relative viability
1,LU99A,0.355
2,BEN,0.799
3,HARA,0.207
4,HCC-78,0.795
5,NCI-H322M,0.452
6,LCLC-97TM1,0.256
7,A-427,0.668
8,NCI-H441,0.954
9,NCI-H1734,0.457
10,NCI-H460,0.611
11,NCI-H2347,0.712
12,NCI-H1395,0.399
13,201T,0.672
14,NCI-H1915,0.755
15,HCC-827,0.175
16,LXF-289,1.16
17,NCI-H23,0.244

row,Cell Line,relative viability
1,NCI-H647,0.525
2,CAL-12T,0.578
3,NCI-H1651,0.463
4,EPLC-272H,0.267
5,NCI-H1355,0.673
6,NCI-H3122,1.15
7,NCI-H1437,1.11
8,NCI-H1755,0.383
9,HCC-15,1.33
10,NCI-H1793,0.413
11,PC-14,0.329
12,EKVX,0.665
13,LC-2-ad,0.842
14,NCI-H1944,0.472
15,NCI-H1975,0.709
16,RERF-LC-KJ,0.813
17,ABC-1,0.846
